Reference: US20210024507A1, “Compounds” (Step Pharma S.A.S., priority 2018, published 2021)

Tested on: human CTPS1
Experiment: RapidFire/MS-based enzyme selectivity assay, human CTPS1
Type: biochemical
Conditions: calculated from the CTPS1 and CTPS2 IC50 values
Procedure: The enzyme inhibitory activities against each target isoform of interest may be determined for the compounds of the invention using an optimised RapidFire high-throughput mass spectrometry (RF/MS) assay format. RF/MS assays for both human CTPS1 and CTPS2 may be performed in assay buffer consisting of 50mM HEPES (Merck), 20mM MgCl2, 5mM KCI, 1mM DTT, 0.01% Tween-20, pH to 8.0 accordingly. Human full-length active C-terminal FLAG-His-tag CTPS1 (UniProtKB - P17812, CTPS[1-591]-[…]) may be obtained from Proteros biostructures GmbH. Human full length active C-terminal FLAG-His-Avi tagged CTPS2 (UniProtKB-Q9NRF8, CTPS2 [1-586]- […]) may be obtained from Harker Bio.
Human CTPS (1 or 2) protein may be prepared in lx assay buffer to the final working protein concentration required for the reaction. A 2uL volume per well of 2× CTPS (1 or 2) protein may be mixed with 40nL of compound using acoustic (ECHO) delivery and incubated for 10 minutes at 25° C. Each isoform enzymatic reaction may be subsequently initiated by addition of 2uL per well of a 2× substrate mix in assay buffer. For hCTPS1: ATP (0.3mM), UTP (0.2mM), GTP (0.07mM) and L-glutamine (0.1mM). For hCTPS2: ATP (0.1mM), UTP (0.04mM), GTP (0.03mM) and L-glutamine (0.1mM). Each mixture may be incubated for an appropriate amount of time per isoform within the determined linear phase of the reaction at 25° C. A 60uL volume of stop solution (1% formic acid with 0.5uM ^13C9-^15N3-CTP in H2O) may be added and the plate immediately heat-sealed and centrifuged for 10 minutes at 4,000rpm. Following centrifugation, plates may be loaded onto the Agilent RapidFire microfluidic solid phase extraction system coupled to an AP14000 triple quadrupole mass spectrometer (RF/MS) for analysis.
In all cases, the enzyme converts UTP to CTP. Highly specific and sensitive multiple reaction monitoring (MRM) MS methods may be optimised for the detection of the enzymatic reaction product, CTP, and the stable isotope labelled product standard ^13C9-^15N3-CTP. Readout for data analysis may be calculated as the ratio between the peak area of the product CTP and the internal standard ^13C9-^15N3-CTP. For data reporting, the following equation may be used:
[formula] (R=ratio/readout, P=product signal area, IS=internal standard signal area)
For each screening plate, the means of the negative (DMSO) and positive control values were used for the calculation of the respective assay window (S/B) and Z′ values. The median of the respective control values was used for calculation of percent inhibition according to the following equation:
[formula] (I=Inhibition, Rneg=median of negative control readout values, Rpos=median of positive control readout values, Rsample=sample readout value)
Percentage inhibition was then plotted against compound concentration, and the 50% inhibitory concentration (IC50) was determined from the resultant concentration-response curve.
Fold selectivity between CTPS1 and CTPS2 was subsequently calculated according to the following equation: […]

SMILES	Selectivity (fold selectivity between CTPS1 and CTPS2)
CCOc1cncc(-c2ccc(NC(=O)C(F)(CC)c3ccnc(NS(C)(=O)=O)n3)nc2)n1 (stereo not shown) [P151, N-(5-(6-ethoxypyrazin-2-yl)pyridin-2-yl)-2-fluoro-2-(2-(methylsulfonamido)pyrimidin-4-yl)butanamide]	+++ (>60 fold (+++))
CCOc1cncc(-c2ccc(NC(=O)C(C)(OC)c3cncc(NS(=O)(=O)C4CC4)n3)nc2)n1 (single isomer, unassigned) [P205b, 2-(6-(cyclopropanesulfonamido)pyrazin-2-yl)-N-(5-(6-ethoxypyrazin-2-yl)pyridin-2-yl)-2-methoxypropanamide]	++ (>30-60 fold (++))
CCOc1cncc(-c2ccc(NC(=O)C(C)(C)c3cncc(NS(=O)(=O)C4CC4)n3)nc2)n1 [P195, 2-(6-(cyclopropanesulfonamido)pyrazin-2-yl)-N-(5-(6-ethoxypyrazin-2-yl)pyridin-2-yl)-2-methylpropanamide]	+++ (>60 fold (+++))
CCOc1cncc(-c2ccc(NC(=O)C(C)(C)c3ccnc(NS(C)(=O)=O)n3)nc2)n1 [P76, N-(5-(6-ethoxypyrazin-2-yl)pyridin-2-yl)-2-methyl-2-(2-(methylsulfonamido)pyrimidin-4-yl)propanamide]	++ (>30-60 fold (++))
CC(C)(NC(=O)c1ccc(-c2cncc(C(F)(F)F)n2)cc1)c1cncc(NS(=O)(=O)C2CC2)n1 [P222, N-(2-(6-(cyclopropanesulfonamido)pyrazin-2-yl)propan-2-yl)-4-(6-(trifluoromethyl)pyrazin-2-yl)benzamide]	+ (2-30 fold (+))
O=C(Cc1ccnc(NS(=O)(=O)C2CC2)n1)Nc1ccc(-c2cccnc2)cc1 [P16, 2-(2-(cyclopropanesulfonamido)pyrimidin-4-yl)-N-(4-(pyridin-3-yl)phenyl)acetamide]	++ (>30-60 fold (++))
CC(C)Oc1cncc(-c2ccc(NC(=O)Cc3ccnc(NS(=O)(=O)C4CC4)n3)cc2)n1 [P21, 2-(2-(cyclopropanesulfonamido)pyrimidin-4-yl)-N-(4-(6-isopropoxypyrazin-2-yl)phenyl)acetamide]	++ (>30-60 fold (++))
CCOc1cncc(-c2ccc(NC(=O)C(C)(C)c3cncc(NS(=O)(=O)C4CC4)n3)cc2)n1 [P196, 2-(6-(cyclopropanesulfonamido)pyrazin-2-yl)-N-(4-(6-ethoxypyrazin-2-yl)phenyl)-2-methylpropanamide]	+++ (>60 fold (+++))
CCOc1cncc(-c2ccc(NC(=O)C(C)(C)c3ccnc(NS(=O)(=O)CC)n3)cc2)n1 [P74, N-(4-(6-ethoxypyrazin-2-yl)phenyl)-2-(2-(ethylsulfonamido)pyrimidin-4-yl)-2-methylpropanamide]	++ (>30-60 fold (++))
CC(C)Oc1cncc(-c2ccc(C(=O)NC(C)(C)c3cncc(NS(=O)(=O)C4CC4)n3)c(F)c2)n1 [P221, N-(2-(6-(cyclopropanesulfonamido)pyrazin-2-yl)propan-2-yl)-2-fluoro-4-(6-isopropoxypyrazin-2-yl)benzamide]	+ (2-30 fold (+))
CCOc1cncc(-c2ccc(NC(=O)C(CCOC)c3ccnc(NS(=O)(=O)C4CC4)n3)nc2)n1 (stereo not shown) [P145, 2-(2-(cyclopropanesulfonamido)pyrimidin-4-yl)-N-(5-(6-ethoxypyrazin-2-yl)pyridin-2-yl)-4-methoxybutanamide]	+++ (>60 fold (+++))
CC(C)(C(=O)Nc1ccc(-c2cncc(C3CC3)n2)cn1)c1ccnc(NS(=O)(=O)C2CC2)n1 [P125, 2-(2-(cyclopropanesulfonamido)pyrimidin-4-yl)-N-(5-(6-cyclopropylpyrazin-2-yl)pyridin-2-yl)-2-methylpropanamide]	++ (>30-60 fold (++))

Next, values leading:

Selectivity (fold selectivity between CTPS1 and CTPS2)	SMILES
++ (>30-60 fold (++))	CCOc1cncc(-c2ccc(NC(=O)C(C)(C)c3nc(NS(=O)(=O)C4CC4)ncc3F)cc2)n1 [P68, 2-(2-(cyclopropanesulfonamido)-5-fluoropyrimidin-4-yl)-N-(4-(6-ethoxypyrazin-2-yl)phenyl)-2-methylpropanamide]
+ (2-30 fold (+))	CC(C)Oc1cncc(-c2ccc(NC(=O)C(C)(C)c3ccnc(NS(=O)(=O)C4CC4)n3)c(F)c2)n1 [P39, 2-(2-(cyclopropanesulfonamido)pyrimidin-4-yl)-N-(2-fluoro-4-(6-isopropoxypyrazin-2-yl)phenyl)-2-methylpropanamide]
+++ (>60 fold (+++))	CCOc1cncc(-c2ccc(NC(=O)C3(c4cncc(NS(=O)(=O)C5CC5)n4)CCOCC3)nc2)n1 [P197, 4-(6-(cyclopropanesulfonamido)pyrazin-2-yl)-N-(5-(6-ethoxypyrazin-2-yl)pyridin-2-yl)tetrahydro-2H-pyran-4-carboxamide]
+++ (>60 fold (+++))	CCOc1cncc(-c2ccc(NC(=O)C3(c4ccnc(NS(=O)(=O)C5CC5)n4)CC3)cc2)n1 [P83, 1-(2-(cyclopropanesulfonamido)pyrimidin-4-yl)-N-(4-(6-ethoxypyrazin-2-yl)phenyl)cyclopropanecarboxamide]
+++ (>60 fold (+++))	CCOc1cncc(-c2ccc(C(=O)NCc3ccnc(NS(=O)(=O)C4CC4)n3)cc2)n1 [P118, N-((2-(cyclopropanesulfonamido)pyrimidin-4-yl)methyl)-4-(6-ethoxypyrazin-2-yl)benzamide]
+ (2-30 fold (+))	CCOc1cncc(-c2ccc(NC(=O)C(OC)c3ccnc(NS(=O)(=O)C4CC4)n3)cc2)n1 (stereo not shown) [P164, 2-(2-(cyclopropanesulfonamido)pyrimidin-4-yl)-N-(4-(6-ethoxypyrazin-2-yl)phenyl)-2-methoxyacetamide]
+++ (>60 fold (+++))	CCOc1cncc(-c2ccc(NC(=O)C3(c4ccnc(NS(=O)(=O)C5CC5)n4)CCCC3)nc2)n1 [P136, 1-(2-(cyclopropanesulfonamido)pyrimidin-4-yl)-N-(5-(6-ethoxypyrazin-2-yl)pyridin-2-yl)cyclopentane-1-carboxamide]
+++ (>60 fold (+++))	CCOc1cncc(-c2ccc(NC(=O)C(C)(C)c3ccnc(NS(=O)(=O)C4CC4)n3)nc2)n1 [P31, 2-(2-(cyclopropanesulfonamido)pyrimidin-4-yl)-N-(5-(6-ethoxypyrazin-2-yl)pyridin-2-yl)-2-methylpropanamide]
++ (>30-60 fold (++))	CCOc1cncc(-c2ccc(NC(=O)C(C)(C)c3ccnc(NS(=O)(=O)C4CC4)n3)cc2)n1 [P65, 2-(2-(cyclopropanesulfonamido)pyrimidin-4-yl)-N-(4-(6-ethoxypyrazin-2-yl)phenyl)-2-methylpropanamide]
++ (>30-60 fold (++))	CC(C)Oc1cncc(-c2ccc(NC(=O)Cc3ccnc(NS(=O)(=O)C4CC4)n3)c(F)c2)n1 [P12, 2-(2-(cyclopropanesulfonamido)pyrimidin-4-yl)-N-(2-fluoro-4-(6-isopropoxypyrazin-2-yl)phenyl)acetamide]
+++ (>60 fold (+++))	CCOc1cncc(-c2ccc(NC(=O)C3(c4ccnc(NS(=O)(=O)C5CC5)n4)CCOCC3)nc2)n1 [P115, 4-(2-(cyclopropanesulfonamido)pyrimidin-4-yl)-N-(5-(6-ethoxypyrazin-2-yl)pyridin-2-yl)tetrahydro-2H-pyran-4-carboxamide]
+++ (>60 fold (+++))	CCOc1cncc(-c2ccc(NC(=O)C(CCOC)c3ccnc(NS(=O)(=O)C4CC4)n3)c(F)c2)n1 (stereo not shown) [P146, 2-(2-(cyclopropanesulfonamido)pyrimidin-4-yl)-N-(4-(6-ethoxypyrazin-2-yl)-2-fluorophenyl)-4-methoxybutanamide]
+++ (>60 fold (+++))	CCOc1cncc(-c2ccc(NC(=O)C3(c4ccnc(NS(=O)(=O)C5CC5)n4)CCOCC3)c(F)c2)n1 [P143, 4-(2-(cyclopropanesulfonamido)pyrimidin-4-yl)-N-(4-(6-ethoxypyrazin-2-yl)-2-fluorophenyl)tetrahydro-2H-pyran-4-carboxamide]
